Measured values reported in US10570179B2, “Substituted urea depsipeptide analogs as activators of the CLPP endopeptidase” (priority 2016, dated 2020).
In brackets after ≈: the same amount, converted by molar mass. Like-named read-outs stand apart in the source and are kept apart here. Numbered stars: 1 amine (or outer) side, 2 acyl side, 3 side chain; on linkers, the order of the positions; unused ones are H or OH. Bridge positions count the residues as written; N and C are the ends. Square brackets hold non-standard residues; d marks the D form. Peptide text beside a SMILES is read from it. * marks the point of attachment. Phe(3-CF3) = N[C@@H](Cc1cccc(C(F)(F)F)c1)C(=O)O; Piperazine(2S-CO,4-Me) = CN1CCN[C@H](C(=O)O)C1; NH(1,3-benzodioxol-5-yl) = c1cc2c(cc1N*)OCO2; Phe(3-Cl) = N[C@@H](Cc1cccc(Cl)c1)C(=O)O; Phe(3-Me) = Cc1cccc(C[C@H](N)C(=O)O)c1; NH(4-Cl-2-F-phenyl) = Fc1cc(Cl)ccc1N*; Pro(4R-Me) = C[C@H]1CN[C@H](C(=O)O)C1; Hyp = O=C(O)[C@@H]1C[C@@H](O)CN1; NH(4-Me-phenyl) = Cc1ccc(N*)cc1; aThr = C[C@H](O)[C@H](N)C(=O)O; Pip = O=C(O)[C@@H]1CCCCN1; X3 = c1cc2c(cc1N*)OCCO2; CO = O=C([*:1])[*:2]

Experiments:
S. aureus ATCC 29213 = experiment: Minimal inhibitory concentration, microbroth dilution; format: cell-based; settings: Staphylococcus aureus
How it was run: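 Susceptibility testing used the CLSI dilution standard, with bacteria at ~10^5 cfu/mL exposed to a two-fold compound series beginning at 200 μM final. The endpoint is the lowest concentration showing no growth after overnight incubation (37 °C, aerobic).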

S. aureus ClpP (Sa-ClpP) = biological target: T1, S. aureus ClpP (Sa-ClpP) (Staphylococcus aureus, UniProt Q2G036); experiment: Casein-BODIPY digestion assay (ClpP activation); format: biochemical
T1 construct: made in house; host or cells: E. coli BL21 (DE3)
T1 sequence (Q2G036 whole entry): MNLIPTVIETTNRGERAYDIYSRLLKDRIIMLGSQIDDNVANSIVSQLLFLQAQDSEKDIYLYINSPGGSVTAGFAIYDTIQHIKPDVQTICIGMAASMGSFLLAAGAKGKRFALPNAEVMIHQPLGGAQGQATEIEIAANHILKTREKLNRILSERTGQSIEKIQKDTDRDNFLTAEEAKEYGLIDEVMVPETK

Sa-ClpP = biological target: T2, Sa-ClpP (Staphylococcus aureus, UniProt Q2G036); experiment: ADEP displacement fluorescence polarization assay; format: binding, S. aureus; settings: displacement of FP probe ADEP 2591 from Sa-ClpP
T2 construct: made in house; host or cells: E. coli BL21 (DE3)
T2 sequence (Q2G036 whole entry): as above
Protocol: A fluorescence polarization (FP) assay was used to determine the activity of the disclosed compounds in displacing an ADEP analogue from ClpP. Briefly, the assay was performed in black 384 well, flat bottom, low volume plates (Greiner Bio-One, Monroe, N.C., catalog #784076). 20 μL of a pre-equilibrated (1 hr, room temperature) master mix (15 μM Sa-ClpP, 2% DMSO (v/v) and 50 nM FP probe in TrisHCl, pH 8.0)) was pipetted into each well using a Well-Mate (Thermo Scientific, Waltham, Mass.). Sa-ClpP was prepared as described above for the ClpP activation assay. The FP probe was ADEP 2591 (structure shown above). The ADEP 2591 comprises a TAMRA fluorophore linked to a core based on modified ADEP 2378 via a short alkyl linker. Using pin transfer, approximately 0.4 μL (2% v/v DMSO) of each compound or control was added per well. After addition of compounds and controls, plates were allowed to incubate for an additional 120 minutes at room temperature. All assays were performed in triplicate. Polarization was monitored using an EnVision Multilabel reader (Perkin-Elmer, Waltham, Mass.) by exciting the FP probe at 530±25 nm, and monitoring fluorescence intensity of both parallel and perpendicular polarized light at 579±25 nm. Readout was in millipolarization units (mP).
Signal gain and G factors were determined in wells containing 200 μM ADEP 2378, which had been previously verified (data not shown) as containing completely unbound ADEP 2591. Data collected was normalized to values obtained from positive (200 μM ADEP 2378) or negative (DMSO) controls. Curves were fit with non-linear regression using the equation “log [inhibitor] vs. Response-variable slope (four parameters)-symmetrical” in the program Prism 6 (GraphPad Software, La Jolla, Calif. USA, www.graphpad.com). The structures for ADEP 2378 and ADEP 2591 are shown above. ADEP 2378 is (E)-N—((S)-1-(((2R,6S,8aS,14aS,20S,23aS)-2,6-dimethyl-5,8,14,19,23-pentaoxooctadecahydro-1H,5H,14H,19H-pyrido[2,1-i]dipyrrolo[2,1-c:2′,1′-1][1]oxa[4,7,10,13]tetraazacyclohexadecin-20-yl)amino)-1-oxo-3-phenylpropan-2-yl)pent-2-enamide. ADEP 2591 is 5-(3-(3-((6S,9S,11aS,17S,20aS)-6,10-dimethyl-5,8,11,16,20-pentaoxo-17-((S)-2-((E)-pent-2-enamido)-3-phenylpropanamido)hexadecahydro-1H,5H,16H-dipyrrolo[2,1-c:2′,1′-1][1]oxa[4,7,10,13]tetraazacyclohexadecin-9-yl)propyl)thioureido)-2-(6-(dimethylamino)-3-(dimethyliminio)-3H-xanthen-9-yl)benzoate.

[1] = ATCC29213, MIC, read-out: Minimal Inhibitory Concentrations (μM) S. aureus ATCC 29213

SMILES | MIC (S. aureus ATCC 29213; [1]) | EC50 (S. aureus ClpP (Sa-ClpP)) | IC50 (Sa-ClpP) | MIC (S. aureus ATCC 29213; ATCC29213, read-out: Minimal Inhibitory Concentrations (μM) S. aureus ATCC 29213, MIC)
C[C@@H]1C[C@H]2C(=O)O[C@@H](C)[C@H](NC(=O)[C@H](Cc3cccc(Cl)c3)NC(=O)Nc3ccc(Cl)cc3F)C(=O)N3CCC[C@H]3C(=O)N3CCN(C)C[C@H]3C(=O)N[C@@H](C)C(=O)N2C1 [Compound 33] ({NH(4-Cl-2-F-phenyl)-CO}-[Phe(3-Cl)][aThr]P[Piperazine(2S-CO,4-Me)]A[Pro(4R-Me)]; ester 2-C) | 0.078 µM (≈ 0.0671 µg/mL) | 200 ± 200 nM | 3.16 ± 0.16 µM | 
Cc1ccc(NC(=O)N[C@@H](Cc2cccc(C)c2)C(=O)N[C@@H]2C(=O)N3C[C@H](O)C[C@H]3C(=O)N3CCN(C)C[C@H]3C(=O)N[C@@H](C)C(=O)N3C[C@H](C)C[C@H]3C(=O)O[C@H]2C)cc1 [Compound 30, (S)—N-((6AS,8R,12S,13S,15AS,17R,21S,23AS)-8-HYDROXY-2,13,17,21-TETRAMETHYL-6,11,15,20,23-PENTAOXOOCTADECAHYDRO-2H,6H,11H,15H-PYRAZINO[2,1-I]DIPYRROLO[2,1-C:2′,1′-L][1]OXA[4,7,10,13]TETRAAZACYCLOHEXADECIN-12-YL)-3-(M-TOLYL)-2-(3-(P-TOLYL)UREIDO)PROPANAMIDE] ({NH(4-Me-phenyl)-CO}-[Phe(3-Me)][aThr][Hyp][Piperazine(2S-CO,4-Me)]A[Pro(4R-Me)]; ester 2-C) |  | 290 ± 290 nM | 3.41 ± 0.41 µM | 0.625 µM (≈ 0.511 µg/mL)
C[C@@H]1C[C@H]2C(=O)OC[C@H](NC(=O)[C@H](Cc3cccc(C(F)(F)F)c3)NC(=O)Nc3ccc(Cl)cc3F)C(=O)N3CCC[C@H]3C(=O)N3CCN(C)C[C@H]3C(=O)N[C@@H](C)C(=O)N2C1 [Compound 18, (S)-2-(3-(4-CHLORO-2-FLUOROPHENYL)UREIDO)-3-(3-(TRIFLUOROMETHYL)PHENYL)-N-((6AS,12S,15AS,17R,21S,23AS)-2,17,21-TRIMETHYL-6,11,15,20,23-PENTAOXOOCTADECAHYDRO-2H,6H,11H,15H-PYRAZINO[2,1-I]DIPYRROLO[2,1-C:2′,1′-L][1]OXA[4,7,10,13]TETRAAZACYCLOHEXADECIN-12-YL)PROPANAMIDE] ({NH(4-Cl-2-F-phenyl)-CO}-[Phe(3-CF3)]SP[Piperazine(2S-CO,4-Me)]A[Pro(4R-Me)]; ester 2-C) | 10 µM (≈ 8.79 µg/mL) | 1750 ± 100 nM | 4.79 ± 0.27 µM | 
Cc1cccc(C[C@H](NC(=O)Nc2ccc3c(c2)OCO3)C(=O)N[C@H]2COC(=O)[C@@H]3C[C@@H](C)CN3C(=O)[C@H](C)NC(=O)[C@@H]3CN(C)CCN3C(=O)[C@@H]3CCCN3C2=O)c1 [Compound 17, (S)-2-(3-(BENZO[D][1,3]DIOXOL-5-YL)UREIDO)-3-(M-TOLYL)-N-((6AS,12S,15AS,17R,21S,23AS)-2,17,21-TRIMETHYL-6,11,15,20,23-PENTAOXOOCTADECAHYDRO-2H,6H,11H,15H-PYRAZINO[2,1-I]DIPYRROLO[2,1-C:2′,1′-L][1]OXA[4,7,10,13]TETRAAZACYCLOHEXADECIN-12-YL)PROPANAMIDE] ({NH(1,3-benzodioxol-5-yl)-CO}-[Phe(3-Me)]SP[Piperazine(2S-CO,4-Me)]A[Pro(4R-Me)]; ester 2-C) | 20 µM (≈ 16.3 µg/mL) | 2640 ± 100 nM | 6.02 ± 0.2 µM | 
Cc1cccc(C[C@H](NC(=O)Nc2ccc3c(c2)OCCO3)C(=O)N[C@@H]2C(=O)N3C[C@H](O)C[C@H]3C(=O)N3CCCC[C@H]3C(=O)N[C@@H](C)C(=O)N3C[C@H](C)C[C@H]3C(=O)O[C@H]2C)c1 [Compound 28, (S)-2-(3-(2,3-DIHYDROBENZO[B][1,4]DIOXIN-6-YL)UREIDO)-N-((2R,6S,8AS,14AS,16R,20S,21S,23AS)-16-HYDROXY-2,6,21-TRIMETHYL-5,8,14,19,23-PENTAOXOOCTADECAHYDRO-1H,5H,14H,19H-PYRIDO[2,1-I]DIPYRROLO[2,1-C:2′,1′-L][1]OXA[4,7,10,13]TETRAAZACYCLOHEXADECIN-20-YL)-3-(M-TOLYL)PROPANAMIDE] ({X3-CO}-[Phe(3-Me)][aThr][Hyp][Pip]A[Pro(4R-Me)]; ester 2-C) | 2.5 µM (≈ 2.11 µg/mL) | 910 ± 80 nM | 4.86 ± 0.17 µM | 
